Experimental data taken from the supplement of paper PMC13380429.

What was measured:
Conditions in all cases: 72 h
Vero E6 [1] = assay: cell viability relative to DMSO; higher = less toxic
U2OS [2] = assay: as above
Calu-3 [3] = assay: as above
Caco-2 [4] = assay: as above
HepG2 [5] = assay: as above
Vero E6 [6] = assay: relative viability EC50 (midpoint between 100% and the lowest measured viability); higher = less toxic
U2OS [7] = assay: as above
Calu-3 [8] = assay: as above
Caco-2 [9] = assay: as above
HepG2 [10] = assay: as above
Vero E6 [11] = assay: drug sensitivity score (DSS) for viability; higher = more toxic; extreme values may be limits of the assay
U2OS [12] = assay: as above
Calu-3 [13] = assay: as above
Caco-2 [14] = assay: as above
HepG2 [15] = assay: as above

| SMILES | cell viability (Vero E6 [1]; 1 nM) | cell viability (Vero E6 [1]; 10 nM) | cell viability (Vero E6 [1]; 100 nM) | cell viability (Vero E6 [1]; 1000 nM) | cell viability (Vero E6 [1]; 10000 nM) | cell viability (U2OS [2]; 1 nM) | cell viability (U2OS [2]; 10 nM) | cell viability (U2OS [2]; 100 nM) | cell viability (U2OS [2]; 1000 nM) | cell viability (U2OS [2]; 10000 nM) | cell viability (Calu-3 [3]; 1 nM) | cell viability (Calu-3 [3]; 10 nM) | cell viability (Calu-3 [3]; 100 nM) | cell viability (Calu-3 [3]; 1000 nM) | cell viability (Calu-3 [3]; 10000 nM) | cell viability (Caco-2 [4]; 1 nM) | cell viability (Caco-2 [4]; 10 nM) | cell viability (Caco-2 [4]; 100 nM) | cell viability (Caco-2 [4]; 1000 nM) | cell viability (Caco-2 [4]; 10000 nM) | cell viability (HepG2 [5]; 1 nM) | cell viability (HepG2 [5]; 10 nM) | cell viability (HepG2 [5]; 100 nM) | cell viability (HepG2 [5]; 1000 nM) | cell viability (HepG2 [5]; 10000 nM) | relative viability EC50 (Vero E6 [6]) | relative viability EC50 (U2OS [7]) | relative viability EC50 (Calu-3 [8]) | relative viability EC50 (Caco-2 [9]) | relative viability EC50 (HepG2 [10]) | drug sensitivity score (Vero E6 [11]) | drug sensitivity score (U2OS [12]) | drug sensitivity score (Calu-3 [13]) | drug sensitivity score (Caco-2 [14]) | drug sensitivity score (HepG2 [15]) |
| --- | --- | --- | --- | --- | --- | --- | --- | --- | --- | --- | --- | --- | --- | --- | --- | --- | --- | --- | --- | --- | --- | --- | --- | --- | --- | --- | --- | --- | --- | --- | --- | --- | --- | --- | --- |
| CC(=O)Oc1ccccc1C(=O)O [aspirin] | 90.7% | 96.7% | 90% | 96.2% | 108% | 96.5% | 93.5% | 104% | 98.3% | 103% | 102% | 90.1% | 94.1% | 92.6% | 101% | 92.4% | 89.3% | 81% | 80% | 89.7% | 95.2% | 100% | 93.8% | 104% | 109% | > 10 µM | > 10 µM | > 10 µM | > 10 µM | > 10 µM | 0 | 0 | 0 | 3.8 | 0 |
| CC(C)C(=O)OC[C@@]1(N=[N+]=[N-])O[C@@H](n2ccc(N)nc2=O)[C@H](OC(=O)C(C)C)[C@@H]1OC(=O)C(C)C [balapiravir] | 98.6% | 92.8% | 93.4% | 98.4% | 90.7% | 99.6% | 94.9% | 96% | 95.5% | 94.6% | 99% | 99.1% | 97% | 100% | 102% | 103% | 87% | 100% | 98.7% | 88.9% | 95.6% | 102% | 92.6% | 102% | 92.4% | > 10 µM | > 10 µM | > 10 µM | > 10 µM | > 10 µM | 0 | 0 | 0 | 0 | 0 |
| CC(C)(O)CC(=O)O [beta-hydroxy-beta-methylbutyrate] | 106% | 108% | 101% | 99.5% | 100% | 105% | 99.5% | 98.1% | 95.9% | 99.5% | 98.7% | 100% | 105% | 102% | 113% | 102% | 92.2% | 99.4% | 92.6% | 97.2% | 91.8% | 94.3% | 101% | 104% | 93.3% | > 10 µM | > 10 µM | > 10 µM | > 10 µM | > 10 µM | 0 | 0 | 0 | 0 | 0 |
| O=C(O)CCNC(=O)c1ccccc1 [betamipron] | 94.6% | 96.4% | 95.6% | 92.2% | 96.2% | 102% | 98% | 101% | 92.5% | 99.4% | 108% | 90.6% | 113% | 104% | 116% | 90.2% | 95.6% | 99.7% | 100% | 103% | 94.8% | 111% | 95.9% | 114% | 105% | > 10 µM | > 10 µM | > 10 µM | > 10 µM | > 10 µM | 0 | 0 | 0 | 0 | 0 |
| O=C(O)CCCC[C@@H]1SC[C@@H]2NC(=O)N[C@@H]21 [biotin] | 106% | 66.8% | 105% | 59.3% | 106% | 99.2% | 101% | 97.7% | 101% | 97.8% | 93.8% | 105% | 98% | 102% | 97.6% | 95.8% | 96.3% | 101% | 95.1% | 89.3% | 111% | 101% | 108% | 97.4% | 104% | > 10 µM | > 10 µM | > 10 µM | > 10 µM | > 10 µM | 0 | 0 | 0 | 0.1 | 0 |
| C[C@H](Oc1ccc(S(C)(=O)=O)cc1C(=O)N1CCN(c2ncc(C(F)(F)F)cc2F)CC1)C(F)(F)F [bitopertin] | 103% | 95.6% | 96.6% | 100% | 97.5% | 98.9% | 100% | 101% | 95.3% | 101% | 97.1% | 99% | 95.8% | 97.8% | 106% | 100% | 98.6% | 92.5% | 94.2% | 91.1% | 94.7% | 95.1% | 96.2% | 104% | 98.4% | > 10 µM | > 10 µM | > 10 µM | > 10 µM | > 10 µM | 0 | 0 | 0 | 0 | 0 |
| Oc1c(Br)cc(Br)c2cccnc12 [broxyquinoline] | 102% | 94.1% | 102% | 110% | 99% | 96% | 98.7% | 101% | 98.2% | 94.6% | 108% | 82.2% | 90.7% | 97.6% | 99% | 89.4% | 92.5% | 93.2% | 98.9% | 112% | 84.2% | 108% | 110% | 100% | 87.6% | > 10 µM | > 10 µM | > 10 µM | > 10 µM | > 10 µM | 0 | 0 | 0 | 0 | 0 |
| CCCCOc1ccc(CC(=O)NO)cc1 [bufexamac] | 81.9% | 103% | 89.2% | 96.1% | 85.1% | 100% | 97.8% | 98.1% | 96% | 99% | 95.8% | 91.2% | 104% | 98.2% | 99.3% | 91.6% | 89.5% | 96.7% | 90.6% | 92.8% | 95% | 94.6% | 87.5% | 99.9% | 98.2% | > 10 µM | > 10 µM | > 10 µM | > 10 µM | > 10 µM | 0.1 | 0 | 0 | 0 | 0 |
| CCCCc1ccc(C(N)=O)nc1 [bupicomide] | 96.6% | 99.9% | 96% | 100% | 107% | 99.9% | 94.5% | 103% | 93.6% | 102% | 97.9% | 84.9% | 103% | 84.7% | 99.3% | 94.6% | 81.3% | 94% | 90.8% | 88% | 93.8% | 103% | 92.6% | 116% | 114% | > 10 µM | > 10 µM | > 10 µM | > 10 µM | > 10 µM | 0 | 0 | 0 | 0 | 0 |
| OC[C@H]1O[C@H](O[C@H]2O[C@H](CO)[C@@H](O)[C@H](O)[C@H]2O)[C@H](O)[C@@H](O)[C@@H]1O [cabaletta] | 110% | 94.3% | 104% | 105% | 99.5% | 99.1% | 103% | 104% | 107% | 106% | 96.2% | 105% | 97.2% | 109% | 96.3% | 112% | 112% | 83.7% | 97.7% | 94.5% | 130% | 110% | 115% | 110% | 98.2% | > 10 µM | > 10 µM | > 10 µM | > 10 µM | > 10 µM | 0 | 0 | 0 | 0 | 0 |
| CCOc1nc2cccc(C(=O)O)c2n1Cc1ccc(-c2ccccc2-c2nnn[nH]2)cc1 [candesartan] | 102% | 97.6% | 95.3% | 92.7% | 108% | 94.2% | 96.8% | 94.4% | 99.3% | 102% | 91.1% | 95.7% | 100% | 99.7% | 105% | 104% | 97.5% | 106% | 90.1% | 92.5% | 103% | 100% | 106% | 98% | 94.5% | > 10 µM | > 10 µM | > 10 µM | > 10 µM | > 10 µM | 0 | 0 | 0 | 0 | 0 |
| O=C1c2ccccc2C(=O)C1c1ccc(Cl)cc1 [chlorindione] | 95.1% | 95.2% | 90.3% | 93.6% | 108% | 99.5% | 93.8% | 105% | 97.4% | 95.4% | 103% | 103% | 99.5% | 106% | 99.7% | 94.5% | 84.3% | 104% | 95.2% | 106% | 96.8% | 108% | 106% | 111% | 122% | > 10 µM | > 10 µM | > 10 µM | > 10 µM | > 10 µM | 0 | 0 | 0 | 0 | 0 |
| C=Cc1c(C)c2cc3nc(c(CC(=O)O)c4[n-]c(cc5nc(cc1[n-]2)C(C)=C5CC)c(C)c4C(=O)O)[C@@H](CCC(=O)O)[C@@H]3C.[Cu+2] [chlorophyllin-copper] | 103% | 97.3% | 95.2% | 102% | 85.9% | 94.9% | 97.2% | 98.7% | 91.9% | 88.6% | 88.2% | 85.4% | 104% | 104% | 75.4% | 88.2% | 84% | 98.7% | 95.8% | 89.4% | 89.6% | 104% | 82.3% | 105% | 88.8% | > 10 µM | > 10 µM | > 10 µM | > 10 µM | > 10 µM | 0.1 | 0 | 0.7 | 0 | 0 |
| Oc1ccnc2cc(Cl)ccc12 [chloroxoquinoline] | 102% | 90.9% | 101% | 96.1% | 99.5% | 98.5% | 99.7% | 95.5% | 103% | 95.5% | 87.2% | 95.4% | 92.9% | 105% | 92.2% | 98.7% | 96.3% | 94.7% | 90.8% | 89.9% | 104% | 96.3% | 94.6% | 92.4% | 105% | > 10 µM | > 10 µM | > 10 µM | > 10 µM | > 10 µM | 0 | 0 | 0 | 0 | 0 |
